Values of other authors in patent publication US10265413B2, “High molecular weight biodegradable gelatin-doxorubicin conjugate” (priority 2014, dated 2019).

Conditions: cumulative doses

COc1cccc2c1C(=O)c1c(O)c3c(c(O)c1C2=O)C[C@@](O)(C(=O)CO)C[C@@H]3O[C@H]1C[C@H](N)[C@H](O)[C@H](C)O1 [DOX, (7S,9S)-7-[(2R,4S,5S,6S)-4-amino-5-hydroxy-6-methyloxan-2-yl]oxy-6,9,11-trihydroxy-9-(2-hydroxyacetyl)-4-methoxy-8,10-dihydro-7H-tetracene-5,12-dione]
cumulative dose above which irreversible cardiomyopathy occurs: > 550 mg/m^2
